Some test systems named below: NCI-H23; CCRF-CEM; M14; SK-OV-3; UO-31; HCT-15; Malme-3M; TK-10; NCI-H460; SF-268; UACC-62; MOLT-4; U-251; SNB-19; SK-MEL-28; SF-295; 786-0; MDA-MB-435; SK-MEL-5; HL-60.
What all share (test): DTP human tumour cell line panel, 48 h

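Grown in 96-well plates, cells were treated for 48 hours with each compound at five concentrations. Insufficient inhibition: endpoint recorded as highest concentration tested. Here, GI50 denotes the concentration required for 50% inhibition of growth.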 Active and inactive are the calls of the source. Rule as the data show it: active = GI50 up to about 1.1 µM and inactive = higher. Where only a bound is given, the exact number is not on record here.

Take `Cc1cc2c(c(O)c1-c1c(C)cc(O)c3c1C(=O)C=CC3=O)C(=O)C=CC2=O`: the GI50 in the assay with NCI-H23 is 3.05 µM (inactive); in the assay on CCRF-CEM it was < 0.01 µM (active); in the assay with M14 it was 2.18 µM (inactive); in the assay on SK-OV-3, 15.6 µM (inactive); in the assay on UO-31 it was 1.63 µM (inactive); in the assay with HCT-15 it was 1.52 µM. In addition, the GI50 is 0.342 µM (active) with Malme-3M; 0.855 µM (active) in the assay on TK-10; 6.43 µM (inactive) with NCI-H460; 1.92 µM (inactive) in the assay with SF-268; 2.13 µM (inactive) in the assay on UACC-62; 0.0224 µM (active) in the assay on MOLT-4. Further, the GI50 is 4.03 µM (inactive) in the assay with U-251; 18 µM (inactive) with SNB-19; 0.369 µM (active) in the assay with SK-MEL-28; 16.7 µM (inactive) in the assay with SF-295; 1.16 µM (inactive) in the assay with 786-0; 1.95 µM (inactive) in the assay with MDA-MB-435. In addition, the GI50 was 4.01 µM (inactive) in the assay on SK-MEL-5 and < 0.01 µM (active) in the assay with HL-60.

For `Cc1ccc(S[C@@H](C)[C@@](O)(C(N)=O)c2ccccc2)cc1`, the GI50 in the assay on NCI-H23 is 29.8 µM (inactive); in the assay with CCRF-CEM it was 7.67 µM (inactive); with M14, > 100 µM (inactive); in the assay on SK-OV-3, > 100 µM (inactive); in the assay on UO-31, 15.2 µM (inactive); in the assay on HCT-15 it was 84.3 µM. The GI50 in the assay on Malme-3M is 21 µM (inactive); with TK-10 it was > 100 µM (inactive); in the assay with NCI-H460, 85.1 µM (inactive); in the assay with SF-268, > 100 µM (inactive); in the assay on UACC-62, 40.3 µM (inactive); in the assay with MOLT-4, 12.4 µM (inactive). For the same compound, the GI50 in the assay on U-251 is 70.3 µM (inactive); in the assay on SNB-19 it was > 100 µM (inactive); in the assay with SK-MEL-28, > 100 µM (inactive); with SF-295 it was 18.5 µM (inactive); in the assay on 786-0, 72.6 µM (inactive); with MDA-MB-435, 45.6 µM (inactive). Also, the results for the GI50 in the assay on SK-MEL-5 and in the assay on HL-60 were 20.6 µM (inactive) and 37.3 µM (inactive), respectively.

Take `Cc1cc(C)n(CN(Cn2nc(C)cc2C)c2ccc(N(Cn3nc(C)cc3C)Cn3nc(C)cc3C)cc2)n1`: the GI50 is 21.2 µM (inactive) in the assay on NCI-H23; 14.4 µM (inactive) with CCRF-CEM; 20 µM (inactive) in the assay with M14; 25.9 µM (inactive) with SK-OV-3; 28.4 µM (inactive) in the assay on UO-31; 21.5 µM in the assay on HCT-15. Also, the GI50 with Malme-3M was 22.3 µM (inactive); in the assay with TK-10 it was 29.9 µM (inactive); in the assay with NCI-H460, 24.6 µM (inactive); with SF-268 it was 24.8 µM (inactive); in the assay on UACC-62 it was 24.2 µM (inactive); in the assay on MOLT-4 it was 28 µM (inactive). For the same compound, the GI50 with U-251 is 27.9 µM (inactive); in the assay on SNB-19, 24 µM (inactive); in the assay on SK-MEL-28, 18.7 µM (inactive); in the assay on SF-295 it was 30.8 µM (inactive); with 786-0, 19.3 µM (inactive); with MDA-MB-435, 17.7 µM (inactive). The GI50 in the assay with SK-MEL-5 was 16.5 µM (inactive); in the assay with HL-60, 30.5 µM (inactive).

Turning to `COC(=O)c1ccccc1CC1Cc2ccc3c(c2C1)CCC3` (stereo not given), the GI50 with NCI-H23 is 38.1 µM (inactive); in the assay with CCRF-CEM it was 17.9 µM (inactive); in the assay on M14, 33.9 µM (inactive); with SK-OV-3, 32.7 µM (inactive); in the assay with UO-31 it was 37 µM (inactive); in the assay on HCT-15, 20.4 µM. Also, the GI50 was 19.4 µM (inactive) in the assay on Malme-3M; 21.3 µM (inactive) in the assay with TK-10; 30.1 µM (inactive) in the assay on NCI-H460; 41.3 µM (inactive) in the assay on SF-268; 38.5 µM (inactive) in the assay on UACC-62; 21.6 µM (inactive) in the assay on MOLT-4. In addition, the GI50 with U-251 was 28.6 µM (inactive); with SNB-19, 48.6 µM (inactive); in the assay on SK-MEL-28 it was 46 µM (inactive); with SF-295, 35.2 µM (inactive); in the assay on 786-0, 33.3 µM (inactive); in the assay on MDA-MB-435, 22.9 µM (inactive). For the same compound, the GI50 was 22.1 µM (inactive) in the assay on SK-MEL-5 and 13.9 µM (inactive) with HL-60.

Regarding `COC1=C2CC(C)CC(OC)[C@@H](OC(=O)CCN)[C@H](C)/C=C(\C)C(OC(N)=O)C(OC)/C=C\C=C(/C)C(=O)NC(=CC1=O)C2=O` (stereo not given in full), the GI50 is 1.55 µM (inactive) in the assay with NCI-H23; 0.343 µM (active) in the assay on CCRF-CEM; 4.88 µM (inactive) in the assay with M14; 12.8 µM (inactive) in the assay with SK-OV-3; 4.54 µM (inactive) in the assay with UO-31; 2.43 µM in the assay on HCT-15. Also, the GI50 was 0.735 µM (active) with Malme-3M; 3.54 µM (inactive) in the assay on TK-10; 11.1 µM (inactive) with NCI-H460; 9.06 µM (inactive) in the assay with SF-268; 1.47 µM (inactive) in the assay with UACC-62; 0.483 µM (active) with MOLT-4. Also, the GI50 was 2.34 µM (inactive) in the assay with U-251; 7.57 µM (inactive) in the assay with SNB-19; 0.689 µM (active) in the assay with SK-MEL-28; 16.5 µM (inactive) in the assay with SF-295; 1.05 µM (active) in the assay with 786-0; 0.802 µM (active) in the assay with MDA-MB-435. For the same compound, the results for the GI50 in the assay with SK-MEL-5 and with HL-60 were 2.92 µM (inactive) and 0.256 µM (active), respectively.

In the case of `COc1ccc(Cn2c(=O)c(OC)c(C)c3cc4ccccc4cc32)cc1`, the GI50 is 22.3 µM (inactive) in the assay with NCI-H23; 23.3 µM (inactive) in the assay with CCRF-CEM; 41.2 µM (inactive) in the assay with M14; 42.3 µM (inactive) in the assay on SK-OV-3; 39.2 µM (inactive) with UO-31; 27 µM in the assay with HCT-15. Also, the GI50 in the assay on Malme-3M is 21.1 µM (inactive); in the assay on TK-10 it was 25.7 µM (inactive); in the assay on NCI-H460 it was 17.3 µM (inactive); in the assay on SF-268, 39 µM (inactive); in the assay on UACC-62, 13.2 µM (inactive); with MOLT-4 it was 11.8 µM (inactive). Also, the GI50 in the assay with U-251 was 23 µM (inactive); in the assay with SNB-19, 48.1 µM (inactive); in the assay on SK-MEL-28 it was 94.6 µM (inactive); with SF-295, 32.3 µM (inactive); in the assay with 786-0, 33 µM (inactive); in the assay on MDA-MB-435, 28.1 µM (inactive). In addition, the GI50 with SK-MEL-5 was 6.21 µM (inactive); with HL-60, 20 µM (inactive).

`[O-]c1c[n+](CCCC[n+]2cc([O-])on2)no1`: the GI50 in the assay on NCI-H23 is > 100 µM (inactive); with CCRF-CEM, > 100 µM (inactive); with M14, > 100 µM (inactive); in the assay on SK-OV-3, > 100 µM (inactive); with UO-31, > 100 µM (inactive); in the assay on HCT-15 it was above 100 µM. In addition, the GI50 in the assay with Malme-3M is > 100 µM (inactive); in the assay with TK-10, > 100 µM (inactive); with NCI-H460, > 100 µM (inactive); with SF-268 it was > 100 µM (inactive); with UACC-62 it was > 100 µM (inactive); in the assay on MOLT-4, 22.8 µM (inactive). The GI50 in the assay on U-251, with SNB-19, in the assay with SK-MEL-28, in the assay on SF-295, in the assay with 786-0 and in the assay with MDA-MB-435 was > 100 µM (inactive) throughout. The GI50 in the assay with SK-MEL-5 and in the assay with HL-60 was > 100 µM (inactive) each time.

Turning to `COC(=O)/C=C\C(C#N)(C#N)/N=C/c1ccc(C)s1`, the GI50 is 2.23 µM (inactive) in the assay with NCI-H23; 0.0847 µM (active) in the assay on CCRF-CEM; 1.85 µM (inactive) in the assay on M14; 15 µM (inactive) in the assay with SK-OV-3; 1.67 µM (inactive) in the assay on UO-31; 1.67 µM in the assay on HCT-15. The GI50 in the assay with Malme-3M was 1.6 µM (inactive); with TK-10 it was 1.97 µM (inactive); in the assay on NCI-H460 it was 19.3 µM (inactive); in the assay on SF-268, 6.82 µM (inactive); with UACC-62 it was 15.2 µM (inactive); in the assay with MOLT-4, 0.955 µM (active). Besides, the GI50 in the assay with U-251 was 12.4 µM (inactive); with SNB-19, 18.7 µM (inactive); in the assay on SK-MEL-28, 4.28 µM (inactive); with SF-295, 17.8 µM (inactive); with 786-0, 1.69 µM (inactive); in the assay with MDA-MB-435 it was 2.47 µM (inactive). The GI50 was 6.92 µM (inactive) with SK-MEL-5 and 2.29 µM (inactive) with HL-60.

As for `Nc1nc(Cl)c(N)c(NCC2(CO)CC(O)C2)n1` (stereo not given), the GI50 is > 100 µM (inactive) with NCI-H23; > 100 µM (inactive) in the assay on CCRF-CEM; > 100 µM (inactive) with M14; > 100 µM (inactive) in the assay on SK-OV-3; > 100 µM (inactive) in the assay on UO-31; above 100 µM with HCT-15. Also, the GI50 in the assay on Malme-3M, with TK-10, in the assay with NCI-H460, in the assay on SF-268, in the assay on UACC-62 and in the assay with MOLT-4 was > 100 µM (inactive) throughout. Moreover, the GI50 with U-251, in the assay with SNB-19, in the assay on SK-MEL-28, with SF-295, with 786-0 and in the assay with MDA-MB-435 was > 100 µM (inactive) each time. Besides, the GI50 with SK-MEL-5 and with HL-60 was > 100 µM (inactive) each time.

Consider `CSc1nc(SC)c2c(CO)c(Br)n(Cc3ccccc3)c2n1`, for which the GI50 is 30.7 µM (inactive) in the assay on NCI-H23; > 100 µM (inactive) in the assay with CCRF-CEM; 83.2 µM (inactive) in the assay on M14; 20.2 µM (inactive) with SK-OV-3; 12.7 µM (inactive) in the assay on UO-31; 70 µM with HCT-15. The GI50 with Malme-3M is 52.4 µM (inactive); in the assay with TK-10, 21.8 µM (inactive); with NCI-H460 it was 15.7 µM (inactive); in the assay with SF-268, 16.3 µM (inactive); with UACC-62, 17.5 µM (inactive); in the assay with MOLT-4, > 100 µM (inactive). Also, the GI50 was 12.6 µM (inactive) in the assay with U-251; 29 µM (inactive) in the assay on SNB-19; 47.9 µM (inactive) with SK-MEL-28; 20.7 µM (inactive) in the assay on SF-295; 18.7 µM (inactive) in the assay with 786-0; > 100 µM (inactive) with MDA-MB-435. The values for the GI50 in the assay on SK-MEL-5 and in the assay on HL-60 were 48.9 µM (inactive) and > 100 µM (inactive), respectively.

One may read the GI50 as the concentration at which growth is held to half of that of the control.

The values are drawn from ChEMBL document CHEMBL1201862, “PubChem BioAssay data set” (2004).
